The conditions of the series: a range is the spread between reports.

Results on 97 molecules are retold here after a melting point compilation (Tetko et al.).

As to `CC(=O)Oc1ccc(-c2ccccc2)cc1`, the melting point (as a rule, the temperature, or range, at which the solid turns liquid) lay in the range of 88 to 89 °C. In turn, `C=CCI` returned a melting point of -99.3 to -99 °C. As for `O=C(O)c1cc(Cl)c(O)c(Cl)c1`, the figure is 265 to 268 °C. Under `NCCCNCCCCNCCCN` stands 28 to 29 °C; under `CC/C=C/C(C)C`, -142 °C; under `OCc1ccc(CO)cc1`, 118 to 119 °C. `Cc1ccc(-c2ccccc2)cc1` had a melting point of 46 to 49.5 °C.

Turning to `O=C1CCC1`, the melting point was -52 to -50.9 °C. Under `NC(=O)NO` stands 141 to 144 °C.

On to `O=S(=O)(Cl)c1ccc(Br)cc1`, for which the melting point lay in the range of 75 to 76 °C.

On to `O=[N+]([O-])c1ccc(Cl)c([N+](=O)[O-])c1`, for which the melting point was 50 to 53 °C. As to `N#Cc1c(F)c(F)c(F)c(C#N)c1F`, the melting point was in the range of 77 to 79 °C. Molecule `CCCCS(=O)(=O)CCCC` had a melting point of 44 to 45 °C.

In the case of `Cc1cc(C)[nH]n1`, the melting point fell in the range of 107 to 108 °C. For `OC(c1ccc(Cl)cc1)(c1ccc(Cl)cc1)C(Cl)(Cl)Cl`, the melting point lay within 77.5 to 78.5 °C.

Molecule `CC(C)C1(C)N=C(c2ncccc2C(=O)O)NC1=O` (configuration not stated) displayed a melting point of 171 to 172 °C. Under `COc1cccc(C(C)=O)c1` stands -8 to -7 °C; under `O=C1C(O)=C(Cl)C(=O)C(O)=C1Cl`, 283 to 284 °C; under `O=C(O)CCC(=O)c1ccc(-c2ccccc2)cc1`, 186 °C. Under `Cc1nnc(S)s1` stands 184 to 187 °C; under `CC1(C(=O)O)CCC(C(=O)O)C1(C)C` (configuration not stated), 187 to 189 °C. Molecule `O=c1c2ccccc2oc2ccccc12` came in with a melting point of 175 to 176 °C.

In turn, `CC(C)[C@@H]1CC[C@@H](C)C[C@H]1O` registered a melting point of 42 to 44 °C. For the molecule `CCC`, the melting point is -188 °C. `O=c1c2ccccc2sc2ccccc12` returned a melting point of 209 to 212 °C.

`c1ccc2c(c1)cc1ccc3cccc4ccc2c1c34` had a melting point of 176 to 179 °C.

For the molecule `CC(C)(C)I`, the melting point was -38.2 to -38 °C.

Turning to `Cc1ccc(Cl)c(N)c1`, the melting point was in the range of 29.5 to 32 °C.

`CCCC(=O)NN`: the melting point lay in the range of 44 to 45.5 °C. Regarding `Cc1ccc(P(c2ccc(C)cc2)c2ccc(C)cc2)cc1`, the melting point was 145 to 149 °C. Molecule `CC=O` had a melting point of -128 to -123 °C. The molecule `Cc1cc(C)cc(N)c1` came in with a melting point of 9.8 to 10 °C.

Regarding `Clc1ccc(Cl)nc1`, the melting point is 60.5 to 61 °C. In the case of `O=[N+]([O-])c1cccc(I)c1`, the melting point fell in the range of 37 to 38.5 °C. `COc1ccc(N)c([N+](=O)[O-])c1` registered a melting point of 124 to 127 °C. Under `Oc1ccc(Sc2ccc(O)cc2)cc1` stands 153 to 155 °C; under `O=C(O)c1ccc(C(=O)O)s1`, 358 to 359 °C. With `CCCCCCCCCCC=O`, the melting point is -4 to 0 °C. As for `COP(=O)(NC(C)=O)SC` (configuration not stated), the figure is 88 to 89 °C; as for `CCC1(c2ccccc2)CCC(=O)NC1=O` (configuration not stated), 84 to 87.5 °C. As for `Fc1ccc(Cl)cc1`, the figure is -26.8 to -22 °C; as for `O=C1OC2(OC=C(c3ccccc3)C2=O)c2ccccc21` (configuration not stated), 154 to 157 °C; as for `Cc1cccc(C(C)(C)C)c1`, -41.4 to -41 °C. Under `COc1cccc(O)c1O` stands 42 to 42.8 °C; under `Cc1cc(C=O)c(C)n1-c1ccccc1`, 88.5 to 89 °C.

As for `COC(=O)c1ccc(C#N)cc1`, the melting point lay in the range of 62 to 67 °C. `CCCCS` registered a melting point of -116 °C. Under `Cc1ccc(Cl)c(Cl)c1` stands -15.2 to -15 °C; under `O=C(O)c1cccc(O)c1O`, 204 to 206 °C. With `C=C(C)C(=O)OC`, the melting point was -48 to -47.5 °C. In the case of `CCCCCCCCCCCCCCCCCCCCCCC`, the melting point was in the range of 47.6 to 49 °C. Molecule `C=CCCCCCCCCCCCCCC` had a melting point of 4 to 4.1 °C.

`COc1ccc(O)cc1OC` registered a melting point of 81 to 83 °C. As for `Cc1c(C2(c3cc(C(C)C)c(O)c(Br)c3C)OS(=O)(=O)c3ccccc32)cc(C(C)C)c(O)c1Br`, the figure is 200 to 201 °C; as for `O=C(O)[C@H](O)[C@@H](O)C(=O)O`, 169 to 171 °C. As for `Cc1cccc(C(C)C)c1`, the melting point is -64 to -63.7 °C. In the case of `CCCCCCC(=O)Cl`, the melting point was -84 to -83.8 °C. `CCCCNCCCC`: the melting point was -62 to -60 °C. In the case of `CC(=O)NC(=O)CN`, the melting point fell in the range of 138 to 142 °C. As for `CCCC(=O)OCC`, the figure is -98 to -93 °C; as for `OC1(c2ccccc2)CCCCC1`, 60 to 63.5 °C. For `N#Cc1ccccc1Br`, the melting point lay in the range of 55 to 55.5 °C. Molecule `c1ccc(-c2cc3ccccc3[nH]2)cc1` registered a melting point of 190 °C. As for `CCCCCCCCCCCCCCCC`, the figure is 18 to 18.1 °C; as for `O=C1c2ccccc2-c2ccccc21`, 83 to 84 °C; as for `O=C(O)c1ccc(-c2ccccc2)cc1`, 225 to 228 °C. Under `COc1cc(Cl)ccc1C(=O)O` stands 146 to 147 °C; under `CC12CCC3c4ccc(O)cc4CCC3C1CC(O)C2O` (configuration not stated), 281 to 282 °C. `CC(C)(C)C(=O)O` returned a melting point of 33 to 36 °C. Molecule `Brc1cscc1Br` came in with a melting point of 4.5 to 5 °C. As for `C=C(C#N)C(=O)OCC`, the figure is -22.5 to -22 °C; as for `O=C(O)Cc1ccc(O)c(O)c1`, 128 to 129 °C. As for `O=C1CCC(=O)O1`, the figure is 119 to 120 °C; as for `O=C(O)c1cccnc1`, 237 to 238 °C. Take `O=C(Cl)c1cc(C(=O)Cl)cc(C(=O)Cl)c1`: the melting point was in the range of 36 to 36.3 °C. As to `Cc1cc(C)cc(C(C)(C)C)c1`, the melting point is -22 to -18 °C.

For the molecule `CCCOC(C)=O`, the melting point is -95 to -92 °C. In turn, `CCCCCCCCO` gave a melting point of -16 to -15 °C.

The molecule `O=C(Cl)c1ccccc1C(=O)Cl` registered a melting point of 12 to 15.5 °C. As for `N#Cc1ccc(I)cc1`, the figure is 125 to 126 °C; as for `N#Cc1c2ccccc2cc2ccccc12`, 175 to 177 °C; as for `Oc1ccc2ccccc2c1/N=N/c1ccccc1`, 132 to 134 °C.

Molecule `CC(C)OC(C)C` had a melting point of -86.8 to -86 °C. Molecule `O=c1cc(-c2ccccc2)oc2cc(O)cc(O)c12` had a melting point of 286 to 287 °C. As to `Cc1cc(C)nc(N)n1`, the melting point was in the range of 152 to 153 °C. For `O=[N+]([O-])c1cccc2cnccc12`, the melting point is 108 to 110 °C. The molecule `Oc1ccc(O)cc1` yielded a melting point of 170 to 175 °C. `O=Cc1c(O)ccc2ccccc12` displayed a melting point of 79 to 83 °C. As for `N#Cc1c[nH]cc1-c1cccc2c1OC(F)(F)O2`, the melting point turned out to be 199 °C.

As for `OCCCCCCO`, the melting point lay within 42 to 45 °C. `C#Cc1ccccc1` displayed a melting point of -45 to -44.8 °C. In turn, `O=C(Cl)C(c1ccccc1)c1ccccc1` returned a melting point of 53 to 56.5 °C. Under `CCCC(=O)CC` stands -55.5 to -55 °C. Take `CC(C)(C)c1ccc(O)c(O)c1`: the melting point lay in the range of 54.3 to 55 °C. For the molecule `O=C(O)CCCc1c[nH]c2ccccc12`, the melting point was in the range of 123 to 124 °C. Molecule `CCC(C)N` (configuration not stated) gave a melting point of -105 to -104 °C. Consider `CC12CCC3c4ccc(O)cc4CCC3C1CCC2=O` (configuration not stated), for which the melting point was 255 to 259 °C.
